Assay results reported in US7304174B2, “CaSR antagonist” (Japan Tobacco Inc., priority 2003, dated 2007).

target: T1, human calcium receptor (Homo sapiens, UniProt P41180); test: Evaluation of antagonistic action on calcium receptor using reporter gene (luciferase); assay type: cell-based; settings: transformed rat adrenal derived cells, 5 mM calcium chloride, culture 4 hrs, luciferase activity; read-out: Reporter gene assay (IC50, concentration showing 50% inhibitory rate)
T1 construct: expressed in transfected cells; host or cells: cell strain derived from rat adrenal, co-transformed with luciferase cDNA
T1 sequence (P41180 20-1078): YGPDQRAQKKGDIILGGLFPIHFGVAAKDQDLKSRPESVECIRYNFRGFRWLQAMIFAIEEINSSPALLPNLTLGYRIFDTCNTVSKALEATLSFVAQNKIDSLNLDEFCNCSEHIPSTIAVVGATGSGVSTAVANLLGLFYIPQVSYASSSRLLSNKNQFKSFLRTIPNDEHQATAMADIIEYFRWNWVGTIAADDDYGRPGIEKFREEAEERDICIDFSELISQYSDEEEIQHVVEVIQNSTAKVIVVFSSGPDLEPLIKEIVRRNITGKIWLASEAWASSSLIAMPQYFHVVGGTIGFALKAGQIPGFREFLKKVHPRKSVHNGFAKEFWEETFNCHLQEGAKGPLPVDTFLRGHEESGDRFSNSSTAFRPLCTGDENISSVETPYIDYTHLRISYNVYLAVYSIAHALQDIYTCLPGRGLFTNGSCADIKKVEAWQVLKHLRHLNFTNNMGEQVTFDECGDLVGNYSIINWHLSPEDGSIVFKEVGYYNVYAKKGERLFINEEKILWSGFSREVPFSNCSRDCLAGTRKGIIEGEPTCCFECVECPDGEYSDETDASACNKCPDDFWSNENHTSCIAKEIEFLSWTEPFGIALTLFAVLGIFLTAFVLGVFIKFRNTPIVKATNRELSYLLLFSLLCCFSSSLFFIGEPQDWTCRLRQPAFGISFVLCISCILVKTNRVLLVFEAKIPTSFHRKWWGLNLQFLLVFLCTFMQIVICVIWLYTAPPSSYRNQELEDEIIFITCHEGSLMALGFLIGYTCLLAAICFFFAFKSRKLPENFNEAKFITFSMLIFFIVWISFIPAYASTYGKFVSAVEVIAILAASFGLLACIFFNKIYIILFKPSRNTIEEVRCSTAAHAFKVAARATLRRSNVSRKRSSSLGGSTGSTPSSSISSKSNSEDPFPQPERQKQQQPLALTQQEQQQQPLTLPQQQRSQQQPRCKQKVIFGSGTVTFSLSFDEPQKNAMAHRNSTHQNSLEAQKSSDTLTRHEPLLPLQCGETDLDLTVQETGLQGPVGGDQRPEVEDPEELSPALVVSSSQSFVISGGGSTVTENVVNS
Procedure: Evaluation of Antagonistic Action on Calcium Receptor Using Reporter Gene
Luciferase cDNA and human calcium receptor cDNA were introduced into a cell strain derived from rat adrenal to transform the cells, and the transformed cells were cultured in a medium (80 μl, F12 medium containing 0.5% dialyzed horse serum and 0.25% dialyzed bovine fetal serum). A dimethyl sulfoxide solution containing a test compound at 0.1-10000 μM was diluted 100-fold with the medium and added to the test compound group at 10 μl per well (dimethyl sulfoxide final concentration 0.1%). In the same manner as in test compound group, dimethyl sulfoxide 100-fold diluted with medium was added to a control group and a blank group. Then, 50 mM calcium chloride-containing medium was added to every well except the blank group at 10 μl per well (final concentration 5 mM). A medium containing 50 mM calcium chloride was added to the control group at 10 μl per well, such that the final calcium concentration of the medium became 5 mM. A medium alone was added to the blank group. After culture for 4 hrs, luciferase substrate was added and the luciferase activity was measured with a photoluminometer. The inhibitory rate (%) was calculated from the obtained measured values according to the following formula.
Based on the results, the concentration (IC50) showing 50% inhibitory rate was determined. The results are shown in the aforementioned Tables 1 to 60.

| Structure (SMILES) | IC50 [nM] |
| --- | --- |
| Cc1ccc(CC(C)(C)NC[C@@H](O)CO[C@H](C)c2ccccc2Oc2ccc(C(=O)O)c(Cl)c2)cc1F [Example 2-31, 4-[2-[1-[(2R)-3-[[1-(3-fluoro-4-methylphenyl)-2-methylpropan-2-yl]amino]-2-hydroxypropoxy]ethyl]phenoxy]-2-chlorobenzoic acid] | 16 |
| C[C@@H](OC[C@H](O)CNC(C)(C)Cc1ccc2ccccc2c1)c1ccccc1-c1cc(C(=O)O)ccc1F [Example 1-58, 6-fluoro-2′-[1-[(2R)-3-[[1-(naphthalen-2-yl)-2-methylpropan-2-yl]amino]-2-hydroxypropoxy]ethyl]biphenyl-3-carboxylic acid] | 21 |
| COc1cc(-c2ccccc2[C@@H](C)OC[C@H](O)CNC(C)(C)Cc2ccc(Cl)c(F)c2)ccc1C(=O)O [Example 1-82, 2′-[1-[(2R)-3-[[1-(4-chloro-3-fluorophenyl)-2-methylpropan-2-yl]amino]-2-hydroxypropoxy]ethyl]-3-methoxybiphenyl-4-carboxylic acid] | 27 |
| Cc1cc(-c2ccccc2[C@@H](C)OC[C@H](O)CNC(C)(C)Cc2ccc3ccccc3c2)ccc1C(=O)O [Example 1-13, 2′-[1-[(2R)-3-[[1-(naphthalen-2-yl)-2-methylpropan-2-yl]amino]-2-hydroxypropoxy]ethyl]-3-methylbiphenyl-4-carboxylic acid] | 15 |
| Cc1cc(-c2ccccc2[C@@H](C)OC[C@H](O)CNC(C)(C)Cc2ccc(Cl)c(C(F)(F)F)c2)ccc1C(=O)O [Example 1-97, 2′-[1-[(2R)-3-[[1-(4-chloro-3-trifluoromethylphenyl)-2-methylpropan-2-yl]amino]-2-hydroxypropoxy]ethyl]-3-methylbiphenyl-4-carboxylic acid] | 106 |
| Cc1ccc(CC(C)(C)NC[C@@H](O)CO[C@H](C)c2ccccc2-c2ccc(C(=O)O)c(Cc3ccccc3)c2)cc1F [Example 1-79, 3-benzyl-2′-[1-[(2R)-3-[[1-(3-fluoro-4-methylphenyl)-2-methylpropan-2-yl]amino]-2-hydroxypropoxy]ethyl]biphenyl-4-carboxylic acid] | 4 |
| Cc1ccc(CC(C)(C)NC[C@@H](O)CO[C@H](C)c2ccccc2Oc2ccc(C(=O)O)c([N+](=O)[O-])c2)cc1F [Example 2-29, 4-[2-[1-[(2R)-3-[[1-(3-fluoro-4-methylphenyl)-2-methylpropan-2-yl]amino]-2-hydroxypropoxy]ethyl]phenoxy]-2-nitrobenzoic acid] | 11 |
| Cc1cc(-c2ccccc2C(OC[C@H](O)CNC(C)(C)Cc2ccc(Cl)cc2F)C2CC2)ccc1C(=O)O (stereo partly drawn) [Example 1-18, 2′-[(cyclopropyl)[(2R)-3-[[1-(4-chloro-2-fluorophenyl)-2-methylpropan-2-yl]amino]-2-hydroxypropoxy]methyl]-3-methylbiphenyl-4-carboxylic acid] | 16 |
| CC(OC[C@H](O)CNC(C)(C)Cc1ccc2ccccc2c1)c1ccccc1OCc1cccc(C(=O)O)c1 (stereo partly shown) [2-21′] | 26 |
| C[C@@H](OC[C@H](O)CNC(C)(C)Cc1ccc2ccccc2c1)c1ccccc1-c1ccc(C(=O)O)c(N(C)C)c1 [Example 1-77, 3-(dimethylamino)-2′-[1-[(2R)-3-[[1-(naphthalen-2-yl)-2-methylpropan-2-yl]amino]-2-hydroxypropoxy]ethyl]biphenyl-4-carboxylic acid] | 21 |
| CCc1cc(-c2ccccc2[C@@H](C)OC[C@H](O)CNC(C)(C)Cc2ccc(Cl)c(F)c2)ccc1C(=O)O [Example 1-51, 3-ethyl-2′-[1-[(2R)-3-[[1-(4-chloro-3-fluorophenyl)-2-methylpropan-2-yl]amino]-2-hydroxypropoxy]ethyl]biphenyl-4-carboxylic acid] | 4 |
| Cc1ccc(CC(C)(C)NC[C@@H](O)CO[C@H](C)c2ccccc2Oc2ccc(C(=O)O)cc2F)cc1F [Example 2-34, 4-[2-[1-[(2R)-3-[[1-(3-fluoro-4-methylphenyl)-2-methylpropan-2-yl]amino]-2-hydroxypropoxy]ethyl]phenoxy]-3-fluorobenzoic acid] | 6 |
| CC(OC[C@H](O)CNC(C)(C)Cc1ccc2ccccc2c1)c1ccccc1OCc1cccc(C(=O)O)c1 (stereo partly drawn) [Example 2-21, 3-[[2-[1-[(2R)-3-[[1-(naphthalen-2-yl)-2-methylpropan-2-yl]amino]-2-hydroxypropoxy]ethyl]phenoxy]methyl]benzoic acid] | 17 |
| CC(C)(Cc1ccc2ccccc2c1)NC[C@@H](O)COC(c1ccccc1-c1ccc(C(=O)O)c(F)c1)C1CC1 (stereo partly drawn) [Example 1-64, 2′-[(cyclopropyl)[(2R)-3-[[1-(naphthalen-2-yl)-2-methylpropan-2-yl]amino]-2-hydroxypropoxy]methyl]-3-fluorobiphenyl-4-carboxylic acid] | 17 |
| COc1cc(C(=O)O)cc(OC)c1Oc1ccccc1C(C)OC[C@H](O)CNC(C)(C)Cc1ccc(C)c(F)c1 (stereo partly drawn) [Example 2-27, 4-[2-[1-[(2R)-3-[[1-(3-fluoro-4-methylphenyl)-2-methylpropan-2-yl]amino]-2-hydroxypropoxy]ethyl]phenoxy]-3,5-dimethoxybenzoic acid] | 27 |
| CC(OC[C@H](O)CNC(C)(C)Cc1ccc2ccccc2c1)c1ccccc1Cc1ccc(C(=O)O)cc1 (stereo partly shown) [2-14′] | 30 |
| CC(OC[C@H](O)CNC(C)(C)Cc1ccc2ccccc2c1)c1ccccc1OCc1ccccc1C(=O)O (stereo partly drawn) [Example 2-20, 2-[[2-[1-[(2R)-3-[[1-(naphthalen-2-yl)-2-methylpropan-2-yl]amino]-2-hydroxypropoxy]ethyl]phenoxy]methyl]benzoic acid] | 20 |
| CC(OC[C@H](O)CNC(C)(C)Cc1ccc2ccccc2c1)c1ccccc1S(=O)(=O)c1ccc(C(=O)O)cc1 (stereo partly drawn) [Example 2-18, 4-[2-[1-[(2R)-3-[[1-(naphthalen-2-yl)-2-methylpropan-2-yl]amino]-2-hydroxypropoxy]ethyl]phenylsulfonyl]benzoic acid] | 236 |
| Cc1cc(-c2ccccc2[C@@H](C)OC[C@H](O)CNC(C)(C)Cc2cc(F)ccc2F)ccc1C(=O)O [Example 1-89, 2′-[1-[(2R)-3-[[1-(2,5-difluorophenyl)-2-methylpropan-2-yl]amino]-2-hydroxypropoxy]ethyl]-3-methylbiphenyl-4-carboxylic acid] | 271 |
| Cc1cc(-c2ccccc2[C@@H](C)OC[C@H](O)CNC(C)(C)Cc2cccc(Cl)c2F)ccc1C(=O)O [Example 1-91, 2′-[1-[(2R)-3-[[1-(3-chloro-2-fluorophenyl)-2-methylpropan-2-yl]amino]-2-hydroxypropoxy]ethyl]-3-methylbiphenyl-4-carboxylic acid] | 28 |
| Cc1ccc(CC(C)(C)NC[C@@H](O)CO[C@H](C)c2ccccc2-c2ccc(C(=O)O)c(C)c2)cc1F [Example 1-16, 2′-[1-[(2R)-3-[[1-(3-fluoro-4-methylphenyl)-2-methylpropan-2-yl]amino]-2-hydroxypropoxy]ethyl]-3-methylbiphenyl-4-carboxylic acid] | 11 |
| Cc1ccc(CC(C)(C)NC[C@@H](O)CO[C@H](C)c2ccccc2-c2ccc(C(=O)O)c(C)c2)c(F)c1 [Example 1-7, 2′-[1-[(2R)-3-[[1-(2-fluoro-4-methylphenyl)-2-methylpropan-2-yl]amino]-2-hydroxypropoxy]ethyl]-3-methylbiphenyl-4-carboxylic acid] | 15 |
